Results from patent US7678810B2, “Thiazole derivative” (Taisho Pharmaceutical Co., Ltd, priority 2004, dated 2010).
Counter-ions that a name gives are not always drawn.

What was measured:
[1] = test system: Smad2/3 phosphorylation caused by TGF-β1 stimulation; assay: Smad2/3 phosphorylation inhibitory activity test; assay type: cell-based; conditions: Homo sapiens; A549 cells; compound 2 hours before TGF-β1 1 ng/ml, 1 hour; anti-Smad2/3 immunoprecipitation, Western blotting
Experimental: A549 cells were seeded to a plate, and cultured overnight in a Ham's F-12 medium supplemented with 10% FBS. This medium was replaced with the same medium containing the compounds or not containing the compounds, and after incubated another 2 hours, TGF-01 was added thereto so as to make its final concentration 1 ng/ml, and further incubated another 1 hour. After completion of incubation, the medium was removed, and the cells were washed with PBS and then lysed by a RIPA solution. The cell lysate solution was subjected to immunoprecipitation using anti-Smad2/3 antibody, and then Western blotting was performed. Using a rabbit anti-phosphorylated serine antibody as a primary antibody, a HRP-labeled anti-rabbit IgG antibody as a secondary antibody, and ECL Western blotting detection reagents as detection reagents, light emitting amounts were measured using Limi-Imager F1 (Roche Diagnostics) etc.
Following the above described methods, the inhibitory activities of the respective compounds against Smad2/3 phosphorylation caused by TGF-β1 stimulation were measured, and IC50 values were calculated.

| SMILES | IC50 [1] | melting point |
| --- | --- | --- |
| Cc1csc(-c2nc(CN3CCOC3=O)[nH]c2-c2ccc3ncsc3c2)n1 [Compound 197] | 92 nM | – |
| C#CCOC(=O)NCc1nc(-c2nc(C)cs2)c(-c2ccc3ncsc3c2)[nH]1 [Compound 191] | 31 nM | – |
| Cc1csc(-c2nc(C)[nH]c2-c2ccc3ncsc3c2)n1 [Compound 52] | 24 nM | – |
| Cc1csc(-c2nc(COC(=O)N(C)C)[nH]c2-c2ccc3ncsc3c2)n1 [Compound 199] | 70 nM | 181.5 to 182 °C |
| Cc1csc(-c2nc(N)[nH]c2-c2ccc3ncsc3c2)n1 [Compound 68] | 31 nM | – |
| Cc1csc(-c2nc(C3CCC(=O)CC3)[nH]c2-c2ccc3ncsc3c2)n1 [Compound 80] | 89 nM | – |
| Cc1csc(-c2nc(CNC(=O)C3CCOCC3)[nH]c2-c2ccc3ncsc3c2)n1 [Compound 129] | 107 nM | 197 to 197.5 °C |
| Cc1csc(-c2nc(C3CCOCC3)[nH]c2-c2ccc3ncsc3c2)n1 [Compound 83] | 99 nM | – |
| Cc1csc(-c2nc(CCC(=O)N3CCN(CCN(C)C)CC3)[nH]c2-c2ccc3ncsc3c2)n1 [Compound 158] | – | 169.5 to 172 °C |
| CCCCNC(=O)c1nc(-c2nc(C)cs2)c(-c2ccc3ncsc3c2)[nH]1 [Compound 140] | – | 209.5 to 212.5 °C |
| Cc1csc(-c2nc(CNC(=O)C3CCCCO3)[nH]c2-c2ccc3ncsc3c2)n1 (stereo not drawn) [Compound 241] | – | 220.5 to 222 °C |
| Cc1csc(C#Cc2ccc(F)cc2)n1 [Compound 219] | – | 82 to 83 °C |
| Cc1csc(-c2nc(CNC(=O)N3CCOCC3)[nH]c2-c2ccc3ncsc3c2)n1 [Compound 185] | – | 205.5 to 206 °C |
| COCCOc1ccc(Cn2c(C)nc(-c3nc(C)cs3)c2-c2ccc3ncsc3c2)cc1 [Compound 234] | – | 129.5 to 131 °C |
| Cc1csc(-c2nc(N)[nH]c2-c2ccc3c(c2)OCO3)n1 [Compound 19] | – | 205.5 to 208 °C |
| COc1ccc(Cn2c(C)nc(-c3nc(C)cs3)c2-c2ccc3ncsc3c2)cc1 [Compound 231] | – | 144 to 145 °C |
| Cc1csc(-c2nc(CNC(=O)N(C)C)[nH]c2-c2ccc3ncsc3c2)n1 [Compound 176] | 77 nM | – |
| CCC(CC)c1nc(-c2nc(C)cs2)c(-c2ccc3ncsc3c2)[nH]1 (as salt: HCl) [Compound 62] | – | 207 to 212 °C |
| Cc1csc(-c2nc(NC(=O)c3ccccc3)[nH]c2-c2ccc3c(c2)OCO3)n1 [Compound 22] | – | 223 to 225 °C |
| Cc1csc(C(=O)C(=O)c2ccc(F)cc2)n1 [Compound 206] | – | 75 to 77 °C |
| Cc1csc(-c2nc(CNC(=O)C3CCC3)[nH]c2-c2ccc3ncsc3c2)n1 [Compound 108] | – | 199 to 200 °C |
| CCc1csc(-c2nc(-c3ccc(C(N)=O)cc3)[nH]c2-c2ccc3c(c2)OCO3)n1 [Compound 11] | – | 259.5 to 261.5 °C |
| CCCC(=O)NCCCCc1nc(-c2nc(C)cs2)c(-c2ccc3c(c2)OCO3)[nH]1 [Compound 33] | – | 132 to 133 °C |
| Cc1csc(-c2nc(CCC(=O)N3CCOCC3)[nH]c2-c2ccc3c(c2)OCO3)n1 [Compound 161] | – | 216.5 to 218 °C |
| Cc1csc(-c2nc(CNC(=O)C3CCOC3)[nH]c2-c2ccc3ncsc3c2)n1 (stereo not drawn) [Compound 128] | – | 174 to 175 °C |

More lines, now with the values ahead:

| IC50 [1] | melting point | SMILES |
| --- | --- | --- |
| 80 nM | – | Cc1csc(-c2nc(-c3ccc(C(N)=O)cc3)[nH]c2-c2ccc3ncsc3c2)n1 [Compound 50] |
| 126 nM | – | CCNC(=O)NCc1nc(-c2nc(C)cs2)c(-c2ccc3ncsc3c2)[nH]1 [Compound 175] |
| 45 nM | – | CCCCc1nc(-c2nc(C)cs2)c(-c2ccc3ncsc3c2)[nH]1 [Compound 57] |
| 32 nM | – | CCCC(=O)NCc1nc(-c2nc(C)cs2)c(-c2ccc3ncsc3c2)[nH]1 [Compound 105] |
| 93 nM | – | CCNC(=O)OCc1nc(-c2nc(C)cs2)c(-c2ccc3ncsc3c2)[nH]1 [Compound 198] |
| 89 nM | – | CCCNC(=O)CCCCc1nc(-c2nc(C)cs2)c(-c2ccc3ncsc3c2)[nH]1 [Compound 171] |
| 42 nM | – | CCCC(=O)CCc1nc(-c2nc(C)cs2)c(-c2ccc3ncsc3c2)[nH]1 [Compound 201] |
| 67 nM | 223.5 to 224 °C | COCC(=O)NCc1nc(-c2nc(C)cs2)c(-c2ccc3ncsc3c2)[nH]1 [Compound 124] |
| 38 nM | – | COC(=O)NCc1nc(-c2nc(C)cs2)c(-c2ccc3ncsc3c2)[nH]1 [Compound 186] |
| 52 nM | – | CCCC(O)CCc1nc(-c2nc(C)cs2)c(-c2ccc3ncsc3c2)[nH]1 (stereo not drawn) [Compound 81] |
| – | 163.5 to 164 °C | Cc1csc(-c2nc(CCC(=O)NCCN(C)C)[nH]c2-c2ccc3ncsc3c2)n1 [Compound 149] |
| – | 200.5 to 205.5 °C | Cc1csc(-c2nc(CNC(=O)CCCN(C)C)[nH]c2-c2ccc3ncsc3c2)n1 [Compound 116] |
| – | 134 to 135.5 °C | COCCOCC(=O)NCc1nc(-c2nc(C)cs2)c(-c2ccc3ncsc3c2)[nH]1 [Compound 123] |
| 38 nM | – | COCCCCc1nc(-c2nc(C)cs2)c(-c2ccc3ncsc3c2)[nH]1 [Compound 87] |
| – | 105 to 117.5 °C | Cc1csc(-c2nc(CCCCC(=O)Nc3ccccc3)[nH]c2-c2ccc3ncsc3c2)n1 (as salt: HCl) [Compound 172] |
| – | 177.5 to 178.5 °C | CCCCCOC(=O)NCc1nc(-c2nc(C)cs2)c(-c2ccc3ncsc3c2)[nH]1 [Compound 195] |
| – | 214.5 to 215 °C | Cc1csc(-c2nc(CNC(=O)CN)[nH]c2-c2ccc3ncsc3c2)n1 [Compound 120] |
